Results from the NIST ThermoML archive (doi:10.1016/j.fluid.2010.08.027).
± gives the expanded uncertainty stated by the source.

Details: 101.33 kPa, Liquid, Vibrating tube method

Structure (SMILES) | mass density (303.15 K) | mass density (308.15 K) | mass density (313.15 K) | mass density (318.15 K) | mass density (323.15 K) | mass density (328.15 K) | mass density (333.15 K) | mass density (338.15 K) | mass density (343.15 K) | mass density (348.15 K) | mass density (353.15 K)
Cn1cc[n+](CCO)c1.O=S(=O)([N-]S(=O)(=O)C(F)(F)F)C(F)(F)F | 1589.4 ± 2.3 kg/m3 | 1584.2 ± 2.3 kg/m3 | 1578.9 ± 2.3 kg/m3 | 1574.2 ± 2.3 kg/m3 | 1568.7 ± 2.3 kg/m3 | 1563.7 ± 2.3 kg/m3 | 1558.7 ± 2.3 kg/m3 | 1553.7 ± 2.2 kg/m3 | 1548.8 ± 2.2 kg/m3 | 1544 ± 2.2 kg/m3 | 1538.6 ± 2.2 kg/m3
Cn1cc[n+](CCO)c1.F[P-](F)(F)(F)(F)F [3-(2-hydroxyethyl)-1-methylimidazolium hexafluorophosphate] | 1555.6 ± 2.2 kg/m3 | 1550.8 ± 2.2 kg/m3 | 1546 ± 2.2 kg/m3 | 1541.1 ± 2.2 kg/m3 | 1536.4 ± 2.2 kg/m3 | 1531.8 ± 2.2 kg/m3 | 1527.2 ± 2.2 kg/m3 | 1522.6 ± 2.2 kg/m3 | 1518.2 ± 2.2 kg/m3 | 1513.6 ± 2.2 kg/m3 | 1508.7 ± 2.1 kg/m3
Cn1cc[n+](CCO)c1.O=S(=O)([O-])C(F)(F)F | 1444 ± 2 kg/m3 |  | 1436.1 ± 2 kg/m3 |  | 1428 ± 2 kg/m3 |  | 1420.5 ± 1.9 kg/m3 |  | 1410.8 ± 1.9 kg/m3 |  | 1400.5 ± 1.9 kg/m3
